Active and inactive are the calls of the source. The rule behind the calls is not given here.
Key:
A549 [1] = test: Cytotoxicity against human A549 cells after 48 hrs by MTT assay; format: functional, cell-based; conditions: A549, 48 h
A549 [2] = test: Cytotoxicity against human A549 cells at 50 uM after 48 hrs by MTT assay; format: functional; conditions: A549, 48 h, read-out: GI
[3] = Upregulation of Bax expression in human HCT116 cells at 20 uM after 24 hrs by Western blotting method; format: functional, cell-based; conditions: HCT-116
[4] = Downregulation of Bcl2 expression in human HCT116 cells at 20 uM after 24 hrs by Western blotting method; format: functional, cell-based; conditions: HCT-116
[5] = Induction of apoptosis in human HCT116 cells assessed as upregulation of caspase-9 expression at 20 uM after 24 hrs by Western blotting method; format: functional, cell-based; conditions: HCT-116
HCT-116 [6] = test: Induction of apoptosis in human HCT116 cells assessed as pycnosis at 10 to 20 uM after 24 hrs by acridine orange/ethidium bromide staining-based fluorescence microscopy; format: functional, cell-based
HCT-116 [7] = test: Induction of cell cycle arrest in human HCT116 cells assessed as accumulation at G1 phase at 20 uM after 48 hrs by propidium iodide staining-based flow cytometry (reference value: 41.51%); format: functional
MCF7 [8] = test: Cytotoxicity against human MCF7 cells at 50 uM after 48 hrs by MTT assay; format: functional; conditions: MCF7, 48 h, read-out: GI
HCT-116 [9] = test: Induction of cell cycle arrest in human HCT116 cells assessed as accumulation at G2 phase at 20 uM after 48 hrs by propidium iodide staining-based flow cytometry (reference value: 32.43%); format: functional
[10] = Induction of apoptosis in human HCT116 cells assessed as upregulation of caspase-3 expression at 20 uM after 24 hrs by Western blotting method; format: functional, cell-based; conditions: HCT-116
[11] = Cytotoxicity against human FR2 cells after 48 hrs by MTT assay; format: cell-based; conditions: FR2, 48 h
[12] = Cytotoxicity against human HCT116 cells after 48 hrs by MTT assay; format: functional, cell-based; conditions: HCT-116, 48 h
HCT-116 [13] = test: Induction of apoptosis in human HCT116 cells assessed as cell budding at 10 to 20 uM after 24 hrs by acridine orange/ethidium bromide staining-based fluorescence microscopy; format: functional
[14] = Cytotoxicity against human THP1 cells after 48 hrs by MTT assay; format: functional, cell-based; conditions: THP-1, 48 h
HCT-116 [15] = test: Induction of apoptosis in human HCT116 cells assessed as membrane blebbing at 10 to 20 uM after 24 hrs by acridine orange/ethidium bromide staining-based fluorescence microscopy; format: functional, cell-based
[16] = Cytotoxicity against human FR2 cells at 50 uM after 48 hrs by MTT assay; format: cell-based; conditions: read-out: GI
HCT-116 [17] = test: Induction of apoptosis in human HCT116 cells at 20 uM after 24 hrs by Hoechst 33258 staining-based fluorescence microscopy; format: functional, cell-based
MCF7 [18] = test: Cytotoxicity against human MCF7 cells after 48 hrs by MTT assay; format: functional, cell-based; conditions: MCF7, 48 h
[19] = Cytotoxicity against human THP1 cells at 50 uM after 48 hrs by MTT assay; format: functional; conditions: THP-1, 48 h, read-out: GI
[20] = Cytotoxicity against human HCT116 cells at 50 uM after 48 hrs by MTT assay; format: functional; conditions: HCT-116, 48 h, read-out: GI
HCT-116 [21] = test: Induction of apoptosis in human HCT116 cells at 20 uM after 24 hrs by JC-1 staining-based fluorescence microscopy; format: functional, cell-based

Q: What does the source list for C[C@H]1[C@H](C)CC[C@]2(C(=O)O)CC[C@]3(C)C(=CC[C@@H]4[C@@]5(C)C/C(=C\c6cc(O)ccc6O)C(=O)C(C)(C)[C@@H]5CC[C@]43C)[C@H]12?
A: IC50 (A549 [1]): 550 nM; inhibition of growth at 50 µM (A549 [2]): 93%; Activity [3]: Active; Activity [4]: Active; Activity [5]: Active; Activity (HCT-116 [6]): Active; Activity (HCT-116 [7]): 65.58%; inhibition of growth at 50 µM (MCF7 [8]): 100%; Activity (HCT-116 [9]): 11.65%; Activity [10]: Active; IC50 [11]: 800 nM; IC50 [12]: < 100 nM; Activity (HCT-116 [13]): Active; IC50 [14]: 900 nM; Activity (HCT-116 [15]): Active; inhibition at 48 h, 50 µM [16]: 91%; Activity (HCT-116 [17]): Active; IC50 (MCF7 [18]): 5.5 µM; inhibition of growth at 50 µM [19]: 94%; inhibition of growth at 50 µM [20]: 99%; Activity (HCT-116 [21]): Active

— ChEMBL document CHEMBL3785053, “Synthesis and screening of ursolic acid-benzylidine derivatives as potential anti-cancer agents” (Eur J Med Chem, 2016)
